Measurements reported in article PMC12752606, “METTL10‐Mediated PIAS3 Methylation Links Purine Metabolism to Gastric Cancer Progression” (Advanced Science, 2025).
Several values for one entry are separate records, joined by “and”; a condition that tells them apart may be missing. Equal values may be shown once. Read-outs that look alike come from different tables or passages of the source.

Tests used:
[1] = target: other tested methyltransferases; assay: Off-target methyltransferase profiling, panel as a whole; assay type: biochemical; details: all panel enzymes other than METTL10
Description: To evaluate the off‐target effects of LZQ‐02‐023‐01 on methyltransferase activity, a panel of enzymes was assessed using the MTase‐Glo Methyltransferase Assay (Promega), following the manufacturer's instructions. The assay was performed by ICE Bioscience Inc. Briefly, LZQ‐02‐023‐01 was serially diluted 4‐fold in DMSO to generate a 10‐point concentration gradient, and the resulting solutions were dispensed into 384‐well white assay plates using an Echo acoustic liquid handler (Labcyte). Plates were centrifuged at 1000 rpm for 1 min to ensure even compound distribution. Following a 10‐min preincubation at 25 °C, 2 µL of a substrate solution containing S‐adenosylmethionine (SAM) and the specific methyltransferase substrate (Table S7, Supporting Information) was added to each well. After a brief centrifugation, plates were incubated at 25 °C for 180 min to allow the enzymatic methylation reaction to proceed. Subsequently, 1 µL of MTase‐Glo reagent was added, followed by centrifugation and incubation at 25 °C for 45 min. […]
Luminescence signals were directly proportional to methyltransferase activity, were recorded using a microplate reader (BMG LABTECH). Percent inhibition was calculated by normalizing luminescence intensities of compound‐treated wells to DMSO‐treated controls, and IC50 values were calculated using GraphPad Prism 8 software.

[2] = Plasma pharmacokinetics after IV and PO administration; assay type: in vivo, male Sprague–Dawley rats
Description: LZQ‐02‐023‐1 was administered to male Sprague–Dawley (SD) rats (n = 3 per group) via intravenous injection at a dose of 1 mg/kg or oral gavage at a dose of 10 mg/kg. Blood samples were collected at predetermined time points, and plasma concentrations of LZQ‐02‐023‐1 were determined using a validated LC‐MS/MS method. Briefly, working solutions of the analyte were prepared by diluting stock solutions with 50% acetonitrile in water to achieve serial concentrations (10, 20, 50, 100, 200, 500, 1000, 5000, and 10 000 ng/mL). Calibration standards were prepared by spiking 5 µL of working solution into 50 µL of blank SD rat plasma, resulting in final concentrations of 1, 2, 5, 10, 20, 50, 100, 500, and 1000 ng/mL in a total volume of 55 µL. Quality control (QC) samples were independently prepared at four concentrations (2, 5, 50, and 800 ng/mL) using blank SD rat plasma, following the same procedure as for the calibration standards. On the day of analysis, 55 µL of each calibration standard, QC sample, or unknown sample (prepared by mixing 50 µL of SD rat plasma with 5 µL of blank solution) was added to 200 µL of acetonitrile:methanol (1:1, v/v) containing an internal standard (IS) mixture for protein precipitation. The samples were vortexed for 30 s, centrifuged at 4000 rpm for 15 min at 4 °C, and the resulting supernatant was diluted threefold with water. A 10 µL aliquot of the diluted supernatant was injected into an AB Sciex Triple Quad 5500 LC‐MS/MS system for quantitative analysis. Pharmacokinetic parameters, including the maximum plasma concentration (Cmax), time to reach Cmax (Tmax), elimination half‐life (t1⁄2), area under the plasma concentration‐time curve (AUC0–t and AUC0–∞), clearance (CL), and volume of distribution (Vd), were calculated using noncompartmental analysis (NCA) in Phoenix WinNonlin 8.3 (Certara; Table S3, Supporting Information).

[3] = IV 1 mg/kg, individual rats R01-R03, 1 mg/kg
[4] = PO 10 mg/kg, individual rats R04-R06, 10 mg/kg

Question: For `Cc1ccc(Nc2ncc3c(n2)N(C)C(=O)N(c2cccc(N)c2)C3)cn1` [LZQ-02-023-01, Three‐(3‐aminophenyl)‐1‐methyl‐7‐((6‐methylpyridin‐3‐yl)amino)‐3,4‐dihydropyrimido [4,5‐d] pyrimidin‐2 (1H)‐one], which IC50 [1] is on record?
Answer: > 3000 nM

Question: What about the “AUC_%Extrap_obs, mean” value ([2]; IV 1 mg/kg) of the same compound?
Answer: 1.09%

Question: And the “C0, mean” value ([2]; IV 1 mg/kg)?
Answer: 2250 ng/mL

Question: What about the “Vss_obs, mean” value ([2]; IV 1 mg/kg) of the same compound?
Answer: 0.660 L/kg

Question: And the Plasma concentration ([2]; IV 1 mg/kg, 5 min, individual rats R01-R03, 1 mg/kg)?
Answer: 532 ng/mL and 563 ng/mL

Question: And the Plasma concentration ([2]; IV 1 mg/kg, 0.25 h, individual rats R01-R03, 1 mg/kg)?
Answer: 35.5 ng/mL and 26.8 ng/mL

Question: What about the Plasma concentration ([2]; IV 1 mg/kg, 0.5 h, individual rats R01-R03, 1 mg/kg) of the same compound?
Answer: 12.4 ng/mL and 16.0 ng/mL

Question: What about the Plasma concentration ([2]; IV 1 mg/kg, 1 h, individual rats R01-R03, 1 mg/kg) of the same compound?
Answer: 4.29 ng/mL and 4.07 ng/mL

Question: And the Plasma concentration ([2]; IV 1 mg/kg, 2 h, individual rats R01-R03, 1 mg/kg)?
Answer: 2.11 ng/mL and 1.86 ng/mL

Question: And the Plasma concentration ([2]; IV 1 mg/kg, 4 h, individual rats R01-R03)?
Answer: BLOQ (BLOQ = Below quantifiable limit of 1 ng/mL.)

Question: And the Plasma concentration ([2]; IV 1 mg/kg, 8 h, individual rats R01-R03)?
Answer: BLOQ (BLOQ = Below quantifiable limit of 1 ng/mL.)

Question: What about the Plasma concentration ([2]; IV 1 mg/kg, 24 h, individual rats R01-R03) of the same compound?
Answer: BLOQ (BLOQ = Below quantifiable limit of 1 ng/mL.)

Question: What about the AUCInf [2, 3] of the same compound?
Answer: 170 ng·h/mL and 195 ng·h/mL

Question: What about the AUC_%Extrap_obs [2, 3] of the same compound?
Answer: 1.46% and 1.11% and 0.712%

Question: And the AUClast [2, 3]?
Answer: 169 ng·h/mL and 193 ng·h/mL

Question: And the C0 [2, 3]?
Answer: 2058 ng/mL and 2578 ng/mL

Question: And the Cl_obs [2, 3]?
Answer: 97.8 mL/min/kg and 85.6 mL/min/kg

Question: What about the MRTInf_obs [2, 3] of the same compound?
Answer: 7.2 min and 5.85 min

Question: What about the T1/2 [2, 3] of the same compound?
Answer: 37.4 min and 31 min

Question: What about the Vss_obs [2, 3] of the same compound?
Answer: 0.772 L/kg and 0.707 L/kg and 0.501 L/kg

Question: And the “AUC_%Extrap_obs, mean” value ([2]; PO 10 mg/kg)?
Answer: 12.8%

Question: And the “F (bioavailability)” value ([2]; PO 10 mg/kg vs IV 1 mg/kg, individual rats R04-R06)?
Answer: 2.37% and 1.27%

Question: And the Plasma concentration ([2]; PO 10 mg/kg, 0.25 h, individual rats R04-R06, 10 mg/kg)?
Answer: 39.0 ng/mL and 24.0 ng/mL and 8.83 ng/mL

Question: What about the Plasma concentration ([2]; PO 10 mg/kg, 0.5 h, individual rats R04-R06, 10 mg/kg) of the same compound?
Answer: 20.0 ng/mL and 20.1 ng/mL

Question: And the Plasma concentration ([2]; PO 10 mg/kg, 1 h, individual rats R04-R06, 10 mg/kg)?
Answer: 7.33 ng/mL and 6.63 ng/mL and 3.54 ng/mL

Question: And the Plasma concentration ([2]; PO 10 mg/kg, 2 h, individual rats R04-R06, 10 mg/kg)?
Answer: 3.36 ng/mL and 12.9 ng/mL and 3.14 ng/mL

Question: What about the Plasma concentration ([2]; PO 10 mg/kg, 4 h, individual rats R04-R06, 10 mg/kg) of the same compound?
Answer: 2.02 ng/mL and 1.36 ng/mL

Question: What about the Plasma concentration ([2]; PO 10 mg/kg, 8 h, individual rats R04-R06) of the same compound?
Answer: BLOQ (BLOQ = Below quantifiable limit of 1 ng/mL.)

Question: What about the Plasma concentration ([2]; PO 10 mg/kg, 24 h, individual rats R04-R06) of the same compound?
Answer: BLOQ (BLOQ = Below quantifiable limit of 1 ng/mL.)

Question: And the AUCInf [2, 4]?
Answer: 42.0 ng·h/mL and 22.6 ng·h/mL

Question: What about the AUC_%Extrap_obs [2, 4] of the same compound?
Answer: 15.0% and 5.19% and 18.1%

Question: And the AUClast [2, 4]?
Answer: 27.6 ng·h/mL and 39.8 ng·h/mL and 18.5 ng·h/mL

Question: And the Cmax [2, 4]?
Answer: 24.0 ng/mL and 20.1 ng/mL

Question: What about the MRTInf_obs [2, 4] of the same compound?
Answer: 97.2 min and 134 min

Question: And the T1/2 [2, 4]?
Answer: 101 min and 44.9 min and 125 min

Question: And the Tmax [2, 4]?
Answer: 30 min

Question: And the concentration at 5 min ([2]; male, Sprague-Dawley, rat, plasma, iv, 1 mg/kg, IV 1 mg/kg, 5 min, individual rats R01-R03, read-out: Plasma concentration)?
Answer: 504 ng/mL

Question: What about the concentration at 5 min ([2]; male, Sprague-Dawley, rat, plasma, iv, 1 mg/kg, IV 1 mg/kg, 5 min, read-out: Plasma concentration, mean) of the same compound?
Answer: 533 ng/mL

Question: What about the concentration at 0.25 h ([2]; male, Sprague-Dawley, rat, plasma, iv, 1 mg/kg, IV 1 mg/kg, 0.25 h, individual rats R01-R03, read-out: Plasma concentration) of the same compound?
Answer: 28.6 ng/mL
